Laboratory results from patent publication US12448388B2, “PRMT5 inhibitors and uses thereof” (Gilead Sciences, Inc., priority 2023, dated 2025).
pEC50: −log10 of the molar value. Read-outs that look alike come from different tables or passages of the source.

Key:
[1] = system: Symmetric Di-methyl Arginine (SDMA) signal (PRMT5 inhibition) in HCT116 MTAP-deleted cells; experiment: Symmetric di-methyl arginine image-based high content screen assay (SDMA assay), HCT116 MTAP-deleted; format: cell-based; conditions: for EC50 selectivity: HCT116 WT vs HCT116 MTAP-deleted; for pEC50: class symbols
Outline: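 HCT116 WT and MTAP-deleted cells (800/well, RPMI 1640 + 10% FBS) treated with compound 3 days at 37 °C; formalin-fixed, stained with anti-SDMA antibody/Alexa 488 plus DAPI. Mean SDMA intensity per DAPI-defined cell imaged; EC50 from 4-parameter logistic fit.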

[2] = system: HCT116 MTAP-deleted cell lines; experiment: Cell viability assay (CellTiter-Glo, 7 days), HCT116 MTAP-deleted; format: cell-based; design: CC50 selectivity: unit not given beside the values
Outline: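 Luminescent ATP readout (CellTiter-Glo) after 7 days of continuous compound exposure gives the CC50 value. Cells were plated onto pre-dispensed DMSO dilution series of the PRMT5 inhibitors and kept at 37 °C in 5% CO2.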

[3] = Homo sapiens, HCT-116, HCT116 MTAP-deleted
[4] = Homo sapiens, HCT-116, cell viability assay, HCT116 MTAP-deleted, class symbols, read-out: CC50

EC50 selectivity [1] | pEC50 [1, 3] | Structure (SMILES) | CC50 [2, 4] [nM] | pEC50 ([1]; HCT116 MTAP-deleted) | CC50 [2] [nM] | CC50 selectivity [2]
31 | 8.30 to 9.00 | C[C@H]1CN(C(=O)c2cc3c(cc2F)nc(N)c2cncn23)[C@H]2c3ccc(C(F)(F)C(F)(F)F)cc3C[C@H]2O1 [Fg-38, (4-amino-7-fluoroimidazo[1,5-a]quinoxalin-8-yl)((2S,4aS,9aR)-2-methyl-7-(perfluoroethyl)-2,3,9,9a-tetrahydroindeno[2,1-b][1,4]oxazin-4(4aH)-yl)methanone] | < 100 | – | – | –
92 | ≥ 9.00 | Nc1nc2cc(F)c(C(=O)N3CCC[C@@H]4Oc5cc(C(F)(F)C(F)(F)F)ncc5[C@@H]43)cc2n2cncc12 [Fg-40, (4-amino-7-fluoroimidazo[1,5-a]quinoxalin-8-yl)((4aS,9bS)-7-(perfluoroethyl)-3,4,4a,9b-tetrahydrofuro[3,2-b:4,5-c′]dipyridin-1(2H)-yl)methanone] | < 100 | – | – | –
42 | 8.30 to 9.00 | Cc1ncn2c1c(N)nc1cc(F)c(C(=O)N3CCC[C@@H]4Oc5cc(C(F)(F)C(F)(F)F)ncc5[C@@H]43)cc12 [Fg-41, (4-amino-7-fluoro-3-methylimidazo[1,5-a]quinoxalin-8-yl)((4aS,9bS)-7-(perfluoroethyl)-3,4,4a,9b-tetrahydrofuro[3,2-b:4,5-c′]dipyridin-1(2H)-yl)methanone] | < 100 | – | – | –
119 | ≥ 9.00 | Nc1nc2cnc(C(=O)N3C[C@@H](F)C[C@@H]4Oc5cc(OC(F)(F)F)ccc5[C@@H]43)cc2n2cncc12 [Fg-44, (4-aminoimidazo[1,5-a]pyrido[3,4-e]pyrazin-8-yl)((3S,4aS,9bS)-3-fluoro-7-(trifluoromethoxy)-3,4,4a,9b-tetrahydrobenzofuro[3,2-b]pyridin-1(2H)-yl)methanone] | < 100 | – | – | –
273 | ≥ 9.00 | Cc1ncn2c1c(N)nc1cnc(C(=O)N3C[C@@H](F)C[C@@H]4Oc5cc(OC(F)(F)F)ccc5[C@@H]43)cc12 [Fg-46, (4-amino-3-methylimidazo[1,5-a]pyrido[3,4-e]pyrazin-8-yl)((3S,4aS,9bS)-3-fluoro-7-(trifluoromethoxy)-3,4,4a,9b-tetrahydrobenzofuro[3,2-b]pyridin-1(2H)-yl)methanone] | < 100 | – | – | –
94 | ≥ 9.00 | CN(C(=O)c1cc2c(cc1Br)nc(N)c1cncn12)[C@@H]1COc2cc(C(F)(F)F)ccc21 [Fg-48, (S)-4-amino-7-bromo-N-methyl-N-(6-(trifluoromethyl)-2,3-dihydrobenzofuran-3-yl)imidazo[1,5-a]quinoxaline-8-carboxamide] | < 100 | – | – | –
70 | ≥ 9.00 | C#Cc1cc2nc(N)c3cncn3c2cc1C(=O)N(C)[C@@H]1COc2cc(C(F)(F)F)ccc21 [Fg-49, (S)-4-amino-7-ethynyl-N-methyl-N-(6-(trifluoromethyl)-2,3-dihydrobenzofuran-3-yl)imidazo[1,5-a]quinoxaline-8-carboxamide] | < 100 | – | – | –
47 | ≥ 9.00 | Nc1nc2cc(Br)c(C(=O)N3CCC[C@@H]4Oc5cc(C(F)(F)F)ccc5[C@@H]43)cc2n2cncc12 [Fg-50, (4-amino-7-bromoimidazo[1,5-a]quinoxalin-8-yl)((4aS,9bS)-7-(trifluoromethyl)-3,4,4a,9b-tetrahydrobenzofuro[3,2-b]pyridin-1(2H)-yl)methanone] | < 100 | – | – | –

Structure (SMILES) | EC50 selectivity [1] | pEC50 [1, 3] | CC50 [2, 4] [nM] | pEC50 ([1]; HCT116 MTAP-deleted) | CC50 [2] [nM] | CC50 selectivity [2]
Nc1nc2cnc(C(=O)N3CCC[C@@H]4Oc5cc(S(F)(F)(F)(F)F)ccc5[C@@H]43)cc2n2cncc12 [Fg-42, (4-aminoimidazo[1,5-a]pyrido[3,4-e]pyrazin-8-yl)((4aS,9bS)-7-(pentafluoro-16-sulfaneyl)-3,4,4a,9b-tetrahydrobenzofuro[3,2-b]pyridin-1(2H)-yl)methanone] | 57 | – | – | ≥ 9.00 | < 100 | 38
